Source: paper PMC8893300, “A Dynamic Mass Redistribution Assay for the Human Sweet Taste Receptor Uncovers G-Protein Dependent Biased Ligands” (Frontiers in Pharmacology, 2022)

How the values were obtained:
[1] = test system: S1P response in R2/R3 U2OS cells; assay: Pathway blockers on S1P-mediated DMR response in R2/R3 U2OS cells; conditions: for % inhibition of the S1P DMR response: PTx overnight, U0126 2 μM, GF109203x 5 μM, GW583340 10 μM, tyrphostin 1 μM, GSK269962 2 μM, mean ± sd or average of two experiments
Description: (§1) Blocker stocks (250x) were prepared in DMSO or water and stored as aliquots at −20°C. Just before use, they were diluted to 2X their final concentration in assay buffer (D-PBS) at a final concentration of 0.4% DMSO. Concentrated stock solutions of the agonists somatostatin, carbachol, EGF, and sucralose were made in water or D-PBS while S1P was made up in 50% EtOH. Just before use, the agonists were diluted to 5X their final concentration in D-PBS at a final concentration of 0.4% DMSO. Final agonist concentrations were 10 μM somatostatin, 100 μM carbachol, 100–300 ng/ml EGF, 2 mM sucralose and 1 μM S1P. R2/R3 U2OS cells were plated as described above. The following day cells were washed on the Epic® with D-PBS/0.4% DMSO leaving a residual volume of 10 μl. 10 μl of D-PBS/0.4% DMSO was added to each well by hand followed by 20 μl of 2X pathway blocker. Cell plates were equilibrated on the Epic® for 90 min. After recording the baseline activity for 5 min, 10 μl of 5X agonist was added using the LHA and the DMR responses were monitored for an additional 40 min.
(§2) Cells were equilibrated at room temperature for 90 min in the Epic® reader with the indicated concentrations of pathway blockers or latrunculin A. In the case of PTx, cells were incubated over night at 37°C and on the day of the experiment PTx was replaced with buffer and cells were equilibrated in the Epic® reader as described above. A 5x-concentrated stock of agonist was then added onto the cells and DMR responses were recorded as described in Materials and Methods. […] Two to eight independent experiments were conducted with each blocker (number of independent experiments are indicated on the bar graph).

[2] = test system: EGF response in R2/R3 U2OS cells; assay: Pathway blockers on EGF-mediated DMR response in R2/R3 U2OS cells; conditions: for % inhibition of the EGF DMR response / effect on the EGF DMR response, in words: 100–300 ng/ml EGF; for % inhibition of the EGF DMR response: PTx overnight, wortmannin 200 nM, U0126 2 μM, GF109203x 5 μM, mean ± sd; for effect on the EGF DMR response, in words: latrunculin A 1 μM, GW583340 10 μM, tyrphostin 1 μM, GSK269962 2 μM
Description: as §1, §2

[3] = test system: sucralose response (sweet taste receptor) in R2/R3 U2OS cells; assay: Pathway blockers on sucralose-mediated DMR response in R2/R3 U2OS cells; conditions: for effect on the sucralose DMR response, in words: latrunculin A 1 μM, PTx overnight, wortmannin 200 nM, U0126 2 μM
Description: as §1, §2

[4] = test system: carbachol response in R2/R3 U2OS cells; assay: Pathway blockers on carbachol-mediated DMR response in R2/R3 U2OS cells; conditions: for effect on the carbachol DMR response, in words: latrunculin A 1 μM, wortmannin 200 nM, U0126 2 μM, GSK269962 2 μM
Description: as §1, §2

[5] = test system: somatostatin response in R2/R3 U2OS cells; assay: Pathway blockers on somatostatin-mediated DMR response in R2/R3 U2OS cells; conditions: for effect on the somatostatin DMR response, in words: latrunculin A 1 μM, wortmannin 200 nM, U0126 2 μM, GSK269962 2 μM
Description: as §1, §2

parental U2OS cells = assay: DMR assay on parental U2OS cells (receptor-independent responses); type: cell-based
Description: The plates were incubated in the tissue culture hood for 20 min to allow cells to settle evenly at the bottom of the microplate and further cultured at 37°C in an atmosphere of 5% CO2 for 18–24 h. The next day, the cells were subjected to functional analysis using DMR. The lidded Epic® 384 microplate and polypropylene compound plate (Corning) were loaded into the carousel of the Epic® reader, the target plate was washed with DMSO matched D-PBS using the Corning Epic® Liquid Handling Accessory (LHA) and equilibrated in 25 μl of DMSO matched D-PBS for 90 min. […] When indicated, data for agonist dose-responses were normalized to data obtained with a maximum concentration of sucralose (1 mM) and then fitted and plotted using GraphPad Prism (San Diego, CA) and non-linear regression analysis.

[6] = biological target: T1, human sweet taste receptor (hT1R2/hT1R3) coupled to Gα15 (Homo sapiens, UniProt Q7RTX0+Q8TE23); assay: FLIPR calcium mobilization assay, R2/R3 U2OS cells transduced with Gα15 baculovirus; type: cell-based; conditions: R2/R3 U2OS cells transduced with Gα15
T1 construct: expressed in transfected cells
T1 sequence (Q8TE23 20-839): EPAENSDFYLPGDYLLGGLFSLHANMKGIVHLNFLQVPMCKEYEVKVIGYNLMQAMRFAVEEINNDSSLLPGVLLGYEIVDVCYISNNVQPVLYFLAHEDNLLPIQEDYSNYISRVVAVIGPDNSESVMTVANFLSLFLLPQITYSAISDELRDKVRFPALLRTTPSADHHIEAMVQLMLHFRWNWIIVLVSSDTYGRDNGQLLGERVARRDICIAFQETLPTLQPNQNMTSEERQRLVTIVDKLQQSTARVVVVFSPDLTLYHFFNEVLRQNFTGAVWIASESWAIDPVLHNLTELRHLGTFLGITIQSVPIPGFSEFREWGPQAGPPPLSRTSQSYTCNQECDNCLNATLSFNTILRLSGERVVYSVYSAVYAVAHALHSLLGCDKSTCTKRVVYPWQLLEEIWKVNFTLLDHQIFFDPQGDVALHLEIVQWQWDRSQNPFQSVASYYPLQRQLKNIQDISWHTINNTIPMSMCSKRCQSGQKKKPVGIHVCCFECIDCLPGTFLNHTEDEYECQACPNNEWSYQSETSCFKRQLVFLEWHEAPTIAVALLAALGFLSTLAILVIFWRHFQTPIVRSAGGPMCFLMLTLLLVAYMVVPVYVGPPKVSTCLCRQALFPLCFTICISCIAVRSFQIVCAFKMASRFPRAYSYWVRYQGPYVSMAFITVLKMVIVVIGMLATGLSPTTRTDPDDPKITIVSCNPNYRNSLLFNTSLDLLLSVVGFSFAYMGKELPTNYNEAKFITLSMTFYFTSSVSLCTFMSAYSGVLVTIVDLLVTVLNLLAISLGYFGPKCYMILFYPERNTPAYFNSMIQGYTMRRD
T1 sequence (Q7RTX0 21-852): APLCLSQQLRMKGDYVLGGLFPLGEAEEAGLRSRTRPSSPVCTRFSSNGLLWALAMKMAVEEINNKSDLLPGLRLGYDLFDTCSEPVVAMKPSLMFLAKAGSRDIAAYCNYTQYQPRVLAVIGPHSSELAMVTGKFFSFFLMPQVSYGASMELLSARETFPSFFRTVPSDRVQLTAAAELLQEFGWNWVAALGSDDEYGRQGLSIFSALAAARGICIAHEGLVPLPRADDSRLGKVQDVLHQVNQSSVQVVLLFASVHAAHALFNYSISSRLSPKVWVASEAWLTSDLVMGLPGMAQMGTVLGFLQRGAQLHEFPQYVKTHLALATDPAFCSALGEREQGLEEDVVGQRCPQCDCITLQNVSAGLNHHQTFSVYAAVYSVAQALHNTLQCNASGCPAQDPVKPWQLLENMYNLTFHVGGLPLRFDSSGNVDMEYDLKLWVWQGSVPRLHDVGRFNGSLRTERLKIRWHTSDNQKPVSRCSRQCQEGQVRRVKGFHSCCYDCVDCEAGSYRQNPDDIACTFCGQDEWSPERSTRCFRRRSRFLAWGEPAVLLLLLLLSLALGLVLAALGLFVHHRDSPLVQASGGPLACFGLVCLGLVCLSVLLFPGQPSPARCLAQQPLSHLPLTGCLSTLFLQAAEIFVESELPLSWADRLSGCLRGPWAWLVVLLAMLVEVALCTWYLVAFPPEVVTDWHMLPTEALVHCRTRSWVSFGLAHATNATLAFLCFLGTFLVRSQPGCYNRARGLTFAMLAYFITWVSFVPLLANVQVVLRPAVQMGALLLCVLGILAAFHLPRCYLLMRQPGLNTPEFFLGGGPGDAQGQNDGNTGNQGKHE
Description: The Gα15 coding sequence was inserted in the HindIII-NotI sites and recombinant virus was generated using the Bac-to-Bac system (Life Technologies). Virus was further amplified by propagation in Sf9 cells grown in suspension using Sf900-II media. Virus titers were determined by plaque assay on Sf9 cells.
Cells were gently mixed with the virus at a multiplicity of infection (MOI) of 5. Using a multidrop, 70 μl per well of the cell and virus mixture was dispensed in a 384-well clear bottom plate (Fisher). After 24 h of incubation in a humidified 37°C tissue culture incubator, trichostatin A was added to a final concentration of 0.3 μM and the cells were incubated for another 18–24 h at 34°C. On the day of the experiment, cells were loaded with 4 μM of the calcium indicator Fluo-4 AM (Invitrogen) in D-PBS for 1 h at room temperature. After washing the cells with D-PBS using a cell washer (BioTek) and a 30-minute rest time, the cell plate and the compound plate were transferred into the FLIPR-Tetra (Molecular Devices). […] Loading and the FLIPR assay were run as described above. When indicated, data for agonist dose-responses were normalized to data obtained with a maximum concentration of sucralose (1 mM) and then fitted and plotted using GraphPad Prism (San Diego, CA) and non-linear regression analysis.
This value, that we termed pEC50Ratio (sucralose) or pEC50R (sucralose), was calculated with EC50 values obtained in the two assay systems. This transformation also allowed determination of an average and a standard error for the pEC50R (sucralose). The two sets of data (DMR and FLIPR data) were then analyzed with an un-paired t-test (α = 0.05). To calculate relative efficacy bias between the two assays, we captured the top asymptote value from each activity-normalized dose-response curve, as provided by the curve fit, calculated an average and a standard deviation (sd) for each agonist and then analyzed the data pairs with an un-paired t-test (α = 0.05). […] The following steps were followed: 1) Using the PRISM software, we re-analyzed each ligand’s dose-response data obtained in each assay with non-linear regression and the users-defined equation “New Operational Model with TauKa ratios” and retrieved logR values from the fits. 2) Subtracted each ligand’s logR value with that of our standard, the sucralose logR value, obtained from the same data set (each ligand dose-response assay data used in this analysis was accompanied with a sucralose dose-response ran on the same day), producing the ΔlogR value for leach ligand in each assay. 3) Calculated the mean and SEM from ΔlogR replicates (from three to nine independent dose-response analysis, in the two different assays). 4) Calculated ΔΔlogR values by subtracting the averaged ligands’ ΔlogR FLIPR values with the averaged ligands’ ΔlogR DMR values.

[7] = Homo sapiens, U2OS, read-out: % inhibition of the S1P DMR response
[8] = Homo sapiens, U2OS, read-out: % inhibition of the sucralose DMR response
[9] = Homo sapiens, U2OS, read-out: % inhibition of the carbachol DMR response
[10] = Homo sapiens, U2OS, read-out: % inhibition of the somatostatin DMR response

CN(C)CCCn1cc(C2=C(c3c[nH]c4ccccc34)C(=O)NC2=O)c2ccccc21 [GF109203x]
% inhibition of the S1P DMR response ([1]; 1 μM S1P): 15% | % inhibition of the EGF DMR response [2]: 22 ± 11% | % inhibition of the sucralose DMR response ([3]; 2 mM sucralose, GF109203x 5 μM, GW583340 10 μM, tyrphostin 1 μM, mean ± sd or average of two experiments): −7 ± 10% | % inhibition of the carbachol DMR response ([4]; 100 μM carbachol, PTx overnight, GF109203x 5 μM, GW583340 10 μM, tyrphostin 1 μM, mean ± sd or average of two experiments): 67 ± 4% | % inhibition of the somatostatin DMR response ([5]; 10 μM somatostatin, PTx overnight, GF109203x 5 μM, GW583340 10 μM, tyrphostin 1 μM, mean ± sd or average of two experiments): 8%

CCn1c(-c2nonc2N)nc2cnc(Oc3cccc(NC(=O)c4ccc(OCCN5CCOCC5)cc4)c3)cc21 [GSK269962]
% inhibition of the S1P DMR response ([1]; 1 μM S1P): 77 ± 14% | effect on the EGF DMR response, in words [2]: not affected | % enhancement of the sucralose DMR response ([3]; 2 mM sucralose, GSK269962 2 μM, mean ± sd, n = 3): 28 ± 11% | effect on the carbachol DMR response, in words ([4]; 100 μM carbachol): not affected | effect on the somatostatin DMR response, in words ([5]; 10 μM somatostatin): not affected

CS(=O)(=O)CCNCc1nc(-c2ccc3ncnc(Nc4ccc(OCc5cccc(F)c5)c(Cl)c4)c3c2)cs1 [GW583340]
inhibition at 10 µM [1, 7]: -16% | effect on the EGF DMR response, in words [2]: abolished | inhibition at 10 µM [3, 8]: 3.1% | inhibition at 10 µM [4, 9]: 7.6% | inhibition at 10 µM [5, 10]: -0.3%

C/C1=C/C(=O)O[C@@H]2C[C@@H](CC[C@H](C)/C=C\C=C\CC1)O[C@@](O)([C@@H]1CSC(=O)N1)C2 [Latrunculin A]
effect on the S1P DMR response, in words ([1]; 1 μM S1P, latrunculin A 1 μM): disrupted | effect on the EGF DMR response, in words [2]: disrupted | effect on the sucralose DMR response, in words ([3]; 2 mM sucralose): disrupted | effect on the carbachol DMR response, in words ([4]; 100 μM carbachol): disrupted | effect on the somatostatin DMR response, in words ([5]; 10 μM somatostatin): disrupted

N#CC(=C(/N)Sc1ccccc1N)/C(C#N)=C(/N)Sc1ccccc1N [U0126]
% inhibition of the S1P DMR response ([1]; 1 μM S1P): 19 ± 26% | % inhibition of the EGF DMR response [2]: 54 ± 15% | effect on the sucralose DMR response, in words ([3]; 2 mM sucralose): no statistically significant effects | effect on the carbachol DMR response, in words ([4]; 100 μM carbachol): no statistically significant effects | effect on the somatostatin DMR response, in words ([5]; 10 μM somatostatin): no statistically significant effects

COc1ccc(OC(C)C(=O)O)cc1 (centres unmarked) [lactisole, 2-(4-methoxyphenoxy)-propionic acid]
DMR response on parental U2OS cells, in words (parental U2OS cells): positive DMR response

OC[C@H]1O[C@@](CO)(O[C@H]2O[C@H](CO)[C@@H](O)[C@H](O)[C@H]2O)[C@@H](O)[C@@H]1O [sucrose]
response in the FLIPR assay, in words [6]: readily detected | DMR response on parental U2OS cells, in words (parental U2OS cells): produced significant DMR responses

COc1cc2ncnc(Nc3cccc(Cl)c3)c2cc1OC [tyrphostin, Tyrphostin AG 1478]
inhibition at 1 µM [1, 7]: -7% | effect on the EGF DMR response, in words [2]: abolished | inhibition at 1 µM [3, 8]: 2.6% | inhibition at 1 µM [4, 9]: -10.8% | inhibition at 1 µM [5, 10]: 3.1%

COC[C@H]1OC(=O)c2coc3c2[C@@]1(C)C1=C(C3=O)[C@@H]2CCC(=O)[C@@]2(C)C[C@H]1OC(C)=O [wortmannin]
% enhancement of the S1P DMR response ([1]; 1 μM S1P, wortmannin 200 nM, mean ± sd, n = 4): 61 ± 22% | inhibition at 0.2 µM ([2]; Homo sapiens, U2OS, read-out: % inhibition of the EGF DMR response): 42 ± 10% | effect on the sucralose DMR response, in words ([3]; 2 mM sucralose): no statistically significant effects | effect on the carbachol DMR response, in words ([4]; 100 μM carbachol): no statistically significant effects | effect on the somatostatin DMR response, in words ([5]; 10 μM somatostatin): no statistically significant effects
